In patent US8063098B2, “GlyT1 receptor antagonists” (Hoffmann-La Roche Inc., priority 2008, dated 2011):

Target: T1, mGlyT-1b (Mus musculus, UniProt P28571)
T1 construct: host or cells: Flp-in-CHO
T1 sequence (P28571 1-651 isoform P28571-2): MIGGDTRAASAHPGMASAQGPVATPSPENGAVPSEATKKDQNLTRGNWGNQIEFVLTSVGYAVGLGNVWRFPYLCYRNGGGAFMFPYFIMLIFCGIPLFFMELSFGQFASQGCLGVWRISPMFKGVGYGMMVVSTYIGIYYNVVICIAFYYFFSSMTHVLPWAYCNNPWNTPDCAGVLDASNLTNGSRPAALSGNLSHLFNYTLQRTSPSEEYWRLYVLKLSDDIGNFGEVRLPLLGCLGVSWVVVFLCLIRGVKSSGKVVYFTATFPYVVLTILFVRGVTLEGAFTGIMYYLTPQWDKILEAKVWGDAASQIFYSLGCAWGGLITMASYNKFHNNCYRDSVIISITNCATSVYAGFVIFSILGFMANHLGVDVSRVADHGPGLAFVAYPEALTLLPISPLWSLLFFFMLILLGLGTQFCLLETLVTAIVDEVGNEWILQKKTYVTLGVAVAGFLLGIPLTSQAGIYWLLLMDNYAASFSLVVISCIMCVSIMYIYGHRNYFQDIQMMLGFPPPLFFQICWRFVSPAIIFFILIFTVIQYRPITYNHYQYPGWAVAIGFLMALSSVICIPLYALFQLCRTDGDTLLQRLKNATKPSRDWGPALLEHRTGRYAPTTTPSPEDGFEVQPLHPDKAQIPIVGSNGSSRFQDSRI
Experiment: Glycine uptake inhibition assay (mGlyT-1b), [3H]-glycine uptake in Flp-in-CHO cells
Type: cell-based
Conditions: Flp-in-CHO cells stably transfected with mGlyT1b cDNA, 20 min at 22° C. preincubation
Description: Nutrient mixture F-12 (Gibco Life-technologies), fetal bovine serum (FBS) 5%, (Gibco life technologies), Penicillin/Streptomycin 1% (Gibco life technologies), Hygromycin 0.6 mg/ml (Gibco life technologies), Glutamine 1 mM Gibco life technologies) • Uptake buffer (UB): 150 mM NaCl, 10 mM Hepes-Tris, pH 7.4, […], 2.5 mM KCl, 2.5 mM MgSO4, 10 mM (+) D-glucose. • Flp-in™-CHO (Invitrogen Cat n° R758-07) cells stably transfected with mGlyT1b cDNA. Glycine Uptake Inhibition Assay (mGlyT-1b)
On day 1 mammalian cells, (Flp-in™-CHO), transfected with mGlyT-1b cDNA, were plated at the density of 40,000 cells/well in complete F-12 medium, without hygromycin in 96-well culture plates. On day 2, the medium was aspirated and the cells were washed twice with uptake buffer (UB). The cells were then incubated for 20 min at 22° C. with either (i) no potential competitor, (ii) 10 mM non-radioactive glycine, (iii) a concentration of a potential inhibitor. A range of concentrations of the potential inhibitor was used to generate data for calculating the concentration of inhibitor resulting in 50% of the effect (e.g. IC50, the concentration of the competitor inhibiting glycine uptake of 50%). A solution was then immediately added containing [^3H]-glycine 60 nM (11-16 Ci/mmol) and 25 μM non-radioactive glycine. The plates were incubated with gentle shaking and the reaction was stopped by aspiration of the mixture and washing (three times) with ice-cold UB. The cells were lysed with scintillation liquid, shaken 3 hours and the radioactivity in the cells was counted using a scintillation counter.

Compound | IC50
COc1cc(C(F)(F)F)cc(SC)c1C(=O)NC(c1ccccc1)C1(N(C)C)CCC1 (stereo not shown) [Example 51, N-[(1-Dimethylamino-cyclobutyl)-phenyl-methyl]-2-methoxy-6-methylsulfanyl-4-trifluoromethyl-benzamide] | 0.0142 µM
O=C(NC(c1ccccc1)C1(N2CCCC2)CCC1)c1ccc(Cl)cc1C(F)(F)F (stereo not shown) [Example 54] | 0.0275 µM
CSc1cc(C(F)(F)F)ccc1C(=O)NC(c1cccc(F)c1)C1(N2CCCC2)CCC1 (stereo not shown) [Example 55, N-[(3-Fluoro-phenyl)-(1-pyrrolidin-1-yl-cyclobutyl)-methyl]-2-methylsulfanyl-4-trifluoromethyl-benzamide] | 0.0139 µM
COc1cc(C(F)(F)F)cc(SC)c1C(=O)NC(c1cccc(F)c1)C1(N2CCCC2)CCC1 (stereo not shown) [Example 56, N-[(3-Fluoro-phenyl)-(1-pyrrolidin-1-yl-cyclobutyl)-methyl]-2-methoxy-6-methylsulfanyl-4-trifluoromethyl-benzamide] | 0.0135 µM
COc1cc(C(F)(F)F)cc(SC)c1C(=O)NC(c1ccccc1)C1(N2CCOCC2)CCC1 (stereo not shown) [Example 60, 2-Methoxy-6-methylsulfanyl-N-[(1-morpholin-4-yl-cyclobutyl)-phenyl-methyl]-4-trifluoromethyl-benzamide] | 0.0496 µM
Cc1cc(Cl)ccc1C(=O)NC(c1ccccc1)C1(N2CCCC2)CCC1 (stereo not shown) [Example 63, 4-Chloro-2-methyl-N-[phenyl-(1-pyrrolidin-1-yl-cyclobutyl)-methyl]-benzamide] | 0.0297 µM
COc1cc(C(F)(F)F)cc(SC)c1C(=O)NC(c1ccccc1)C1(N2CCSCC2)CCC1 (stereo not shown) [Example 66, 2-Methoxy-6-methylsulfanyl-N-[phenyl-(1-thiomorpholin-4-yl-cyclobutyl)-methyl]-4-trifluoromethyl-benzamide] | 0.0915 µM
CSc1cc(C(F)(F)F)cc(O)c1C(=O)NC(c1ccccc1)C1(N2CCCC2)CCC1 (stereo not shown) [Example 69, 2-Hydroxy-6-methylsulfanyl-N-[phenyl-(1-pyrrolidin-1-yl-cyclobutyl)-methyl]-4-trifluoromethyl-benzamide] | 0.0095 µM
CSc1cc(C(F)(F)F)ccc1C(=O)NC(c1ccccc1)C1(N2CCN(C3CC3)CC2)CCC1 (stereo not shown) [Example 72, N-{[1-(4-Cyclopropyl-piperazin-1-yl)-cyclobutyl]-phenyl-methyl}-2-methylsulfanyl-4-trifluoromethyl-benzamide] | 0.0494 µM
CSc1cc(C(F)(F)F)ccc1C(=O)NC(c1ccccc1)C1(N2CC3(COC3)C2)CCC1 (stereo not shown) [Example 74, 2-Methylsulfanyl-N-{[1-(2-oxa-6-aza-spiro[3.3]hept-6-yl)-cyclobutyl]-phenyl-methyl}-4-trifluoromethyl-benzamide] | 0.0101 µM

Continued by falling IC50, values first:

IC50 | Compound
0.0596 µM | Cc1cc(F)ccc1C(=O)NC(c1ccccc1)C1(N2CCCC2)CCC1 (stereo not shown) [Example 57, 4-Fluoro-2-methyl-N-[phenyl-(1-pyrrolidin-1-yl-cyclobutyl)-methyl]-benzamide]
0.0562 µM | O=C(NC(c1ccccc1)C1(N2CCCC2)CCC1)c1ccc(C(F)(F)F)cc1-c1ccccc1 (stereo not shown) [Example 67, 5-Trifluoromethyl-biphenyl-2-carboxylic acid [phenyl-(1-pyrrolidin-1-yl-cyclobutyl)-methyl]-amide]
0.0308 µM | COc1cc(C(F)(F)F)cc(SC)c1C(=O)NC(c1ccccc1)C1(N2CCN(C3CC3)CC2)CCC1 (stereo not shown) [Example 73, N-{[1-(4-Cyclopropyl-piperazin-1-yl)-cyclobutyl]-phenyl-methyl}-2-methoxy-6-methylsulfanyl-4-trifluoromethyl-benzamide]
0.0261 µM | COc1cc(C(F)(F)F)cc(SC)c1C(=O)NC(c1ccccc1)C1(N2CC3(COC3)C2)CCC1 (stereo not shown) [Example 75, 2-Methoxy-6-methylsulfanyl-N-{[1-(2-oxa-6-aza-spiro[3.3]hept-6-yl)-cyclobutyl]-phenyl-methyl}-4-trifluoromethyl-benzamide]
0.0237 µM | COc1cc(C(F)(F)F)cc(SC)c1C(=O)NC(c1ccccc1)C1(N2CCCCC2)CCC1 (stereo not shown) [Example 49, 2-Methoxy-6-methylsulfanyl-N-[phenyl-(1-piperidin-1-yl-cyclobutyl)-methyl]-4-trifluoromethyl-benzamide]
0.0141 µM | COc1cc(C(F)(F)F)cc(SC)c1C(=O)NC(c1cc(F)cc(F)c1)C1(N2CCCC2)CCC1 (stereo not shown) [Example 53]
0.0127 µM | O=C(NC(c1ccccc1)C1(N2CCCC2)CCC1)c1ccc(C(F)(F)F)cc1Br (stereo not shown) [Example 52, 2-Bromo-N-[phenyl-(1-pyrrolidin-1-yl-cyclobutyl)-methyl]-4-trifluoromethyl-benzamide]
0.01 µM | CSc1cc(C(F)(F)F)ccc1C(=O)NC(c1ccccc1)C1(N(C)C)CCC1 (stereo not shown) [Example 50, N-[(1-Dimethylamino-cyclobutyl)-phenyl-methyl]-2-methylsulfanyl-4-trifluoromethyl-benzamide]
0.0091 µM | CCc1cc(C(F)(F)F)ccc1C(=O)NC(c1ccccc1)C1(N2CCCC2)CCC1 (stereo not shown) [Example 68, 2-Ethyl-N-[phenyl-(1-pyrrolidin-1-yl-cyclobutyl)-methyl]-4-trifluoromethyl-benzamide]
